Earlier results as cited in patent publication US20100215725A1, “PHARMACEUTICAL COMPOSITION CONTAINING IDEBENONE FOR THE TREATMENT OF LIVER DISORDERS” (priority 2009, published 2010).

System: rat liver microsomes
Settings: pro-oxidative system NADPH/ADP/Fe3+

| concentration offering complete protection against lipid peroxidation in microsomes | SMILES |
| --- | --- |
| 20 µmol/L | COC1=C(OC)C(=O)C(CCCCCCCCCCO)=C(C)C1=O [Idebenone, 2,3-dimethoxy-5-methyl-6-(10-hydroxydecyl)-1,4-benzoquinone] |
| 100 µmol/L | COC1=C(OC)C(=O)C(C/C=C(\C)CC/C=C(\C)CC/C=C(\C)CC/C=C(\C)CC/C=C(\C)CC/C=C(\C)CC/C=C(\C)CC/C=C(\C)CC/C=C(\C)CCC=C(C)C)=C(C)C1=O [coenzyme Q-10] |
